pEC50, pIC50: −log10 of the molar value.
Key:
[1] = Liver microsomes stability with NADPH, mouse; conditions: for half-life at 2 μM / microsomal CLint at 2 μM: male, mouse, microsomes; for Remaining Percentage (%) after 60 min Mouse: mouse liver microsomes, with NADPH, 2 μM
Experimental: (§1) The objective of this study was to estimate in vitro metabolic stability of representative compounds of the application in pooled human and male mouse liver microsomes. The concentrations of parent compounds in reaction systems were evaluated by LC-MS/MS for estimating the stability in pooled human and male mouse liver microsomes. The in vitro intrinsic clearances of test compounds were determined as well.
(§2) A master solution in the “Incubation Plate” containing phosphate buffer, ultra-pure H2O, MgCl2 solution and liver microsomes was made according to Table 3. The mixture was pre-warmed at 37° C. water bath for 5 minutes.
(§3) 40 μL of 10 mM NADPH solution was added to each well. The final concentration of NADPH was 1 mM. The negative control samples were prepared by replacing NADPH with 40 μL of ultra-pure H2O. Samples were prepared in duplicate. Negative controls were prepared in singlet.
(§4) The reaction was started with the addition of 4 μL of 200 μM test compounds or control compounds to each master solution to get the final concentration of 2 μM. This study was performed in duplicate.
(§5) Aliquots of 50 μL were taken from the reaction solution at 0, 15, 30, 45 and 60 minutes. The reaction solutions were stopped by the addition of 4 volumes of cold methanol with IS (100 nM alprazolam, 200 nM imipramine, 200 nM labetalol and 2 μM ketoprofen). Samples were centrifuged at 3,220 g for 40 minutes. Aliquot of 90 μL of the supernatant was mixed with 90 μL of ultra-pure H2O and then was used for LC-MS/MS analysis.
(§6) LC/MS analysis was performed for all samples from this study using a Shimadzu liquid chromatograph separation system equipped with degasser DGU-20A5R; solvent delivery unit LC-30AD; system controller SIL-30AC; column oven CTO-30A; CTC Analytics HTC PAL System; Mass spectrometric analysis was performed using an Triple Quad™ 5500 instrument.
(§7) All calculations were carried out using Microsoft Excel. Peak area ratios of test compound to internal standard (listed in the below table) were determined from extracted ion chromatograms.
(§8) All calculations were carried out using Microsoft Excel. Peak areas were determined from extracted ion chromatograms. The slope value, k, was determined by linear regression of the natural logarithm of the remaining percentage of the parent drug vs. incubation time curve.
(§9) The in vitro half-life (in vitro t1/2) was determined from the slope value:
(§10) Conversion of the in vitro t1/2 (min) into the in vitro intrinsic clearance (in vitro CLint, in μL/min/mg proteins) was done using the following equation (mean of duplicate determinations): […]

[2] = Liver microsomes stability with NADPH, human; conditions: for Remaining Percentage (%) after 60 min Human: 2 μM; for half-life at 2 μM / microsomal CLint at 2 μM: human, microsomes
Experimental: as §1, §2, §3, §4, §5, §6, §7, §8, §9, §10

[3] = rapid first-pass metabolism by monoamine oxidase; cited from earlier work
[4] = Liver microsomes stability with NADPH, rat; conditions: for Remaining Percentage (%) after 60 min Rat: rat liver microsomes, with NADPH, 2 μM; for half-life at 2 μM / microsomal CLint at 2 μM: rat, microsomes
[5] = biological target: T1, human 5-HT2A (h5-HT2A) receptor (Homo sapiens, UniProt P28223); assay: FLIPR assay, human 5-HT2A receptor under agonist mode; format: cell-based
T1 construct: expressed in transfected cells; kept under G418 and hygromycin B selection
Experimental: I. Assessment of the Activated Effect of Compounds of Formula I-B Targeting on Human 5-HT2A (h5-HT2A) Receptor Under Agonist Mode:
1. The cells were cultured in cell culture medium (DMEM containing 10% FBS, 1× penicillin-streptomycin 300 μg/ml G418 and 100 μg/ml hygromycin B) at 37° C., 5% (v/v) CO2.
2. One day before the assays, the cells were detached using TrypLE™ Express and count cells using cell counter.
3. 20000 cells/well were seeded in 30 μl/well culture medium to a 384-well cell plate and incubated the cells overnight at 37° C., 5% (v/v) CO2.
4. On the assay day, 2×dye solution was prepared following the manual of the FLIPR® Calcium 6 Assay Kit: i. The dye was diluted with assay buffer (20 mM HEPES in 1×HBSS, PH7.4); ii. probenecid was added to the final concentration of 5 mM; iii. Vortexed vigorously for 1-2 minutes.
5. Medium was removed from cell plate by flicking the cell plate on towel papers.
7. The cell plate was placed on plate shaker, the plate agitated at 600 rpm for 2 minutes. The plate was incubated at 37° C. for 2 hours followed by additional 15-minute incubation at 25° C.
8. 3×compound was prepared in assay buffer: a. Reference compounds were diluted to required concentration with DMSO. The compounds were added to a 384-well compound plate; b. Serial dilutions were performed; c. 10 mM test compounds were added to the compound plate, 3-fold serial dilutions were performed. […] 20 μl/well assay buffer was added to the compound plate; f.
9. The cell plate, compound plate and tips were placed into FLIPR, 10 μl of 3× compound was transferred to the cell plate per well with FLIPR.
i. The normalized fluorescence reading (RFU) was calculated as shown follow, while Fmax and Fmin stand for maximum and minimum of calcium signal during defined time window: RFU=Fmax−Fmin
ii. The percentage activation was calculated by using following equation: […]
iii. EC50 was calculated by fitting % activation against log of compound concentrations with Hill equation using Xlfit.

human 5-HT2A = human 5-HT2A (Homo sapiens, UniProt P28223); assay: Radioligand binding assay on human 5-HT2A receptor ([3H]-ketanserin)
Experimental: i. The assay buffer was prepared following the table below;
iii. Prepared (v/v) DMSO as follows: a. […] The plates were sealed and incubated at 4° C. for 3 hrs;
iv. Preparation of assay plates: a.
vi. The plates were sealed and incubated at 27° C. for 90 min.

[6] = human liver microsomes, with NADPH

T1 sequence (P28223 whole entry): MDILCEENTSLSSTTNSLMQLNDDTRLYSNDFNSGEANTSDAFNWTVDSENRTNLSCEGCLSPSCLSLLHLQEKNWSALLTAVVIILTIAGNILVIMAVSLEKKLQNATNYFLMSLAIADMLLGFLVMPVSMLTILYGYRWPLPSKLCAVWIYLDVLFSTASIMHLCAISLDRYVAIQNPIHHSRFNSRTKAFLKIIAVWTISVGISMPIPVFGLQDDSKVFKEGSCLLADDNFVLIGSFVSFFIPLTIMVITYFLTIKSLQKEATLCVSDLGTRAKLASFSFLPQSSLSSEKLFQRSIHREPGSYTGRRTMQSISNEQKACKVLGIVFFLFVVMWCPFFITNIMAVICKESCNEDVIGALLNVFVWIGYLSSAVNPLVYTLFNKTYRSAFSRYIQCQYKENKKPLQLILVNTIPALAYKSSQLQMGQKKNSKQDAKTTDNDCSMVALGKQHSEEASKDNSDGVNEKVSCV
human 5-HT2A, sequence (P28223 whole entry): as above

Row | Structure (SMILES) | half-life at 2 μM [1] [h] | microsomal CLint at 2 μM [1] [µL/min/mg] | Remaining Percentage (%) after 60 min Mouse [1] [%] | CLint (μL/min/mg protein) Human [2, 6] [μL/min/mg protein] | Half-Life t1/2 (min) Human [2, 6] | Remaining Percentage (%) after 60 min Human [2, 6] [%] | oral activity [3] | Remaining Percentage (%) after 60 min Rat [4] [%] | half-life at 2 μM [4] [h] | microsomal CLint at 2 μM [4] [µL/min/mg] | half-life at 2 μM [2] [h] | microsomal CLint at 2 μM [2] [µL/min/mg] | pEC50 [5] | pIC50 (human 5-HT2A)
1 | COc1ccc2[nH]cc(CCN(C)C)c2c1 [Compound 5-MeO-DMT, 5-methoxy-N,N-dimethyltryptamine, reference compound] | 0.842 | 27.4 | 89.36 | 101.08 | 13.75 min | 4.82 | not orally active | 16.02 | 0.378 | 61 |  |  |  | 
2 | [2H]C([2H])(c1c[nH]c2ccccc12)[C@H]1CCCN1C [I-B-2, (R)-3-((1-methylpyrrolidin-2-yl)methyl-d2)-1H-indole] | 1.02 | 47.1 | 50.81 |  |  | 64.96 |  | 0.81 | 0.144 | 46.3 | 1.61 | 9.64 | > 7.00 | > 6.30
3 | [2H]C([2H])(c1c[nH]c2ccccc12)[C@H]1CCCN1 [I-B-8, (R)-3-(pyrrolidin-2-ylmethyl-d2)-1H-indole] | 1.22 | 18.9 | 56.72 |  |  | 91.11 |  | 38.89 | 0.734 | 31.5 | 7.44 | 3.1 | 6.00 to 7.00 | 5.30 to 6.30
4 | [2H]C([2H])([2H])N1CCC[C@@H]1Cc1c[nH]c2ccc(OC)cc12 [I-B-9, (R)-5-methoxy-3-((1-(methyl-d3)pyrrolidin-2-yl)methyl)-1H-indole] |  |  |  |  |  |  |  |  |  |  |  |  | > 7.00 | > 6.30
5 | [2H]C([2H])(c1c[nH]c2ccc(OC)cc12)[C@H]1CCCN1C [I-B-10, (R)-5-methoxy-3-((1-methylpyrrolidin-2-yl)methyl-d2)-1H-indole] | 1.51 | 38.4 | 63.17 |  |  | 78.24 |  | 35.87 | 0.676 | 29 | 2.82 | 6.86 | > 7.00 | > 6.30
6 | [2H]C([2H])([2H])Oc1ccc2[nH]cc(C[C@H]3CCCN3C([2H])([2H])[2H])c2c1 [I-B-11, (R)-5-(methoxy-d3)-3-((1-(methyl-d3)pyrrolidin-2-yl)methyl)-1H-indole] | 1.36 | 40.6 | 60.16 |  |  | 85.35 |  | 34.51 | 0.651 | 29.5 | 4.38 | 5.01 | > 7.00 | > 6.30
7 | [2H]C([2H])([2H])Oc1ccc2[nH]cc(C([2H])([2H])[C@H]3CCCN3C([2H])([2H])[2H])c2c1 [I-B-12, (R)-5-(methoxy-d3)-3-((1-(methyl-d3)pyrrolidin-2-yl)methyl-d2)-1H-indole] | 1.51 | 38.4 | 63.17 |  |  | 78.24 |  | 35.87 | 0.676 | 29 | 2.82 | 6.86 | > 7.00 | > 6.30
8 | [2H]C([2H])(c1c[nH]c2ccc(OC)cc12)[C@H]1CCCN1C([2H])([2H])[2H] [I-B-13, (R)-5-methoxy-3-((1-(methyl-d3)pyrrolidin-2-yl)methyl-d2)-1H-indole] |  |  |  |  |  |  |  |  |  |  |  |  | > 7.00 | > 6.30
9 | [2H]C([2H])([2H])Oc1ccc2[nH]cc(C[C@H]3CCCN3)c2c1 [I-B-14, (R)-5-(methoxy-d3)-3-(pyrrolidin-2-ylmethyl)-1H-indole] | 8.15 | 10.9 | 91.85 |  | ∞ | 110.97 |  | 92.44 | 8.82 | 4.33 |  |  | > 7.00 | > 6.30
10 | [2H]C([2H])([2H])Oc1ccc2[nH]cc(C([2H])([2H])[C@H]3CCCN3)c2c1 [I-B-15, (R)-5-(methoxy-d3)-3-(pyrrolidin-2-ylmethyl-d2)-1H-indole] |  |  |  |  |  |  |  |  |  |  |  |  | > 7.00 | > 6.30
11 | [2H]C([2H])(c1c[nH]c2ccc(OC)cc12)[C@H]1CCCN1 [I-B-16, (R)-5-methoxy-3-(pyrrolidin-2-ylmethyl-d2)-1H-indole] | 1.36 | 40.6 | 60.16 |  |  | 85.35 |  | 34.51 | 0.651 | 29.5 | 4.38 | 5.01 | > 7.00 | > 6.30

From US20240166630A1, “INDOLE DERIVATIVES AS SEROTONERGIC AGENTS USEFUL FOR THE TREATMENT OF DISORDERS RELATED THERETO” (Mindset Pharma Inc., priority 2021, published 2024)
